Columns and labels:
UMR 106 cells [1] = assay: Metabolism of 1α,25(OH)2-16-ene-D3 analogs into less polar fatty acid ester metabolites in bone cells; format: in vitro ADME, rat; details: 10 μM analog incubated 24 h in UMR 106 cells; HPLC (FIG. 1)
Description: As described herein, various analogs of 1α,25(OH)2-D3, such as 1α,25(OH)2-16-ene-D3 analogs are metabolized into less polar metabolites in the rat osteosarcoma cell line UMR 106. UMR 106 cells were cultured in an humidified atmosphere at 37° C. in 95% air and 5% CO2. MacCoy's culture medium, containing 10% fetal calf serum (FCS), antibiotics (100 IU/mL penicillin and 100 μg/mL streptomycin) and […], was used. Cells became confluent ten days after seeding, and were then incubated with analog. Samples (structures shown in Table 2) of 1α,25(OH)2-16-ene-D3, 1α,25(OH)2-16-ene-3-epi-D3, 1α,25(OH)2-16-ene-20-epi-D3, 1α,25(OH)2-16-ene-20-epi-3-epi-D3, and 1α,25(OH)2-16-ene-23-yne-D3 were dissolved in ethanol to a final concentration of 10 μM and incubated in 50 mL for 24 h. Each analog was incubated in three culture bottles. Incubation was stopped by adding 10 mL methanol to each culture bottle. Culture bottles were stored at −20° C.
Lipid extraction was initiated by first adding two volumes of methanol to each culture bottle from Example I. The protein precipitate was separated from the supernatant by centrifugation at 3000 rpm at 4° C. for 15 min. The supernatant was mixed with four volumes of dichloromethane in a separatory funnel. The lower organic phase was collected and dried under nitrogen gas at 50° C. After reconstitution in 10% isopropanol/hexane, the lipid extract was analyzed by high-performance liquid chromatography (HPLC).
HPLC was performed with a Waters System Controller (Model 600E) equipped with a photodiode array detector (Model PDA 990) to monitor UV absorption at 265 nm. A Zorbax SIL 9.4×250 mm column (DuPont, Wilmington, Del.) was used for all straight phase systems. The corresponding analog was added to each lipid extract and the solutions were then subjected to a straight phase HPLC system using 10% isopropanol/hexane at a flow rate of 2 mL/min. (HPLC system I). Fractions were collected from 0 min. to 12 min. These fractions were further subjected to a straight phase HPLC system using 2% isopropanol/hexane at a flow rate of 2 mL/min. (HPLC system II).

UMR 106 cells [2] = assay: Distribution of esters and substrates between cells and media, UMR 106; format: in vitro ADME, rat; details: lipid extraction from media and cells separately, HPLC system I
Description: Peaks H2-A and H3-A were obtained and purified as described in Example II. In addition, UMR 106 cells were incubated with 1α,25(OH)2-16-ene-20-epi-D3 and 1α,25(OH)2-16-ene-20-epi-3-epi-D3, as described in Example I.
The lipid extraction was carried out from media and cells separately and together, as described in Example II. HPLC was performed with a Waters System Controller (Model 600E) equipped with a photodiode array detector (Model PDA 990) to monitor UV absorption at 265 nm. A Zorbax SIL 9.4×250 mm column (DuPont, Wilmington, Del.) was used for all straight phase systems. Each lipid extract was analyzed using HPLC system I.

Row | Compound | distribution between cells and media (UMR 106 cells [2]) | amount of less polar fatty acid ester metabolites produced (UMR 106 cells [1])
1 | C=C1/C(=C\C=C2/CCC[C@]3(C)C([C@H](C)CCCC(C)(C)O)=CCC23)C[C@H](O)C[C@@H]1O (stereo partly drawn) [1α,25(OH)2-16-ene-3-epi-D3] |  | slightly greater amounts of one of the less polar metabolites
2 | C=C1/C(=C\C=C2/CCC[C@]3(C)C([C@@H](C)CCCC(C)(C)O)=CCC23)C[C@H](O)C[C@@H]1O (stereo partly drawn) [1α,25(OH)2-16-ene-20-epi-3-epi-D3] | distributed primarily in the media | enhanced even further
3 | C=C1/C(=C\C=C2/CCC[C@]3(C)C([C@@H](C)CCCC(C)(C)O)=CCC23)C[C@@H](O)C[C@@H]1O (stereo partly drawn) [1α,25(OH)2-16-ene-20-epi-D3] | distributed primarily in the media | a greater increase in the amount of the less polar fatty acid ester metabolites
4 | C=C1/C(=C\C=C2/CCC[C@]3(C)C([C@@H](C)CC#CC(C)(C)O)=CCC23)C[C@@H](O)C[C@@H]1O (stereo partly drawn) [1α,25(OH)2-16-ene-23-yne-D3] |  | reduced
5 | C=C1/C(=C\C=C2/CCC[C@]3(C)C([C@H](C)CCCC(C)(C)O)=CCC23)C[C@@H](O)C[C@@H]1O (stereo partly drawn) [1α,25(OH)2-16-ene-D3] |  | production of the less polar fatty acid ester metabolites
